The term EC50 denotes the concentration giving half of the maximal effect.

In brackets after ≈: the same amount, converted by molar mass. Structures can show the parent of a compound that is named as a salt.

The test system of the first experiment is Guineapig atrium. The experiment is described as follows: Positive inotropic effect, isolated electrically stimulated guineapig atrium. Format: cell-based. The following applies: Cavia porcellus, Table III, formula Ia, 32° C., contractility recorded 7 to 10 minutes. The protocol: Positive inotropic effect
The following method was used:
Guineapigs of both sexes and weighing 400 g are sacrificed, and the heart is removed and placed in Ringer's solution at room temperature. Both the left and the right atria are then isolated and fixed in an organ holder, and the preparation is placed in a bath containing Ringer's solution and maintained at a temperature of 32° C. A mixture of 95% O2 and 5% CO2 is then bubbled through the organ bath and the atrium is electrically stimulated. The compound to be tested is dissolved in water to give a solution of known concentration and is added to the bath. The contractility of the atrium is recorded for 7 to 10 minutes on a Nihon Kohden 4-channel pen recorder with an isometric strain gage. The activity is expressed on the basis of the resulting data as the EC50.
The results obtained in this model are indicated for representative compounds of the invention in Tables III and IV which follow: […]
Consider `C=C[C@@]1(C)CC(=O)[C@]2(O)[C@@]3(C)[C@@H](O)CCC(C)(C)[C@@H]3[C@H](O)[C@H](OC(=O)COC(=O)CN3CCN(C)CC3)[C@@]2(C)O1` [drawing 50], for which the EC50 was determined as 0.1 µg/mL (≈ 0.176 µM).
As to `C=C[C@@]1(C)CC(=O)[C@]2(O)[C@@]3(C)[C@@H](O)CCC(C)(C)[C@@H]3[C@H](O)[C@H](OC(=O)COC(=O)CN(CC)CC)[C@@]2(C)O1` [1 N(C2 H5)2, 8,13-Epoxy-7β-(2-N,N-diethylglycinyloxyacetoxy)-1α,6β,9α-trihydroxylabd-14-en-11-one hydrochloride], the EC50 was 0.03 µg/mL.
In turn, `C=C[C@@]1(C)CC(=O)[C@]2(O)[C@@]3(C)[C@@H](O)CCC(C)(C)[C@@H]3[C@H](O)[C@H](OC(=O)COC(=O)CN3CCN(C(=O)OCC)CC3)[C@@]2(C)O1` [drawing 52] yielded an EC50 of more than 1 µg/mL.
Still for that read-out and setting: next, `C=C[C@@]1(C)CC(=O)[C@]2(O)[C@@]3(C)[C@@H](O)CCC(C)(C)[C@@H]3[C@H](O)[C@H](OC(=O)COC(=O)CN)[C@@]2(C)O1` [1 NH2, 8,13-Epoxy-7β-(2-glycinyloxyacetoxy)-1α,6β,9α-trihydroxylabd-14-en-11-one monohydrochloride]: 0.1 µg/mL; `C=C[C@@]1(C)CC(=O)[C@]2(O)[C@@]3(C)[C@@H](O)CCC(C)(C)[C@@H]3[C@H](O)[C@H](OC(=O)COC(=O)CN3CCOCC3)[C@@]2(C)O1` [drawing 51]: 1.42 µg/mL (≈ 2.56 µM); `C=C[C@@]1(C)CC(=O)[C@]2(O)[C@@]3(C)[C@@H](O)CCC(C)(C)[C@@H]3[C@H](O)[C@H](OC(=O)COC(=O)CN3CCC(c4ccccc4)CC3)[C@@]2(C)O1` [drawing 49]: 0.18 µg/mL (≈ 0.287 µM).
Same read-out and setting: next, `C=C[C@@]1(C)CC(=O)[C@]2(O)[C@@]3(C)[C@@H](O)CCC(C)(C)[C@@H]3[C@H](O)[C@H](OC(=O)COC(=O)CN(C(C)C)C(C)C)[C@@]2(C)O1` [1 N[CH(CH3)2]2, 8,13-Epoxy-7β-(2-diisopropylaminoacetoxyacetoxy)-1α, 6β,9α-trihydroxylabd-14-en-11-one hydrochloride sesquihydrate]: 1 µg/mL; `C=C[C@@]1(C)CC(=O)[C@]2(O)[C@@]3(C)[C@@H](O)CCC(C)(C)[C@@H]3[C@H](O)[C@H](OC(=O)COC(=O)CNc3cc(OC)c(OC)c(OC)c3)[C@@]2(C)O1` [drawing 48]: 0.545 µg/mL (≈ 0.839 µM).

Staying with this experiment, now noted: Cavia porcellus, Table IV, formula Ib, 32° C., contractility recorded 7 to 10 minutes.
Molecule `C=C[C@@]1(C)CC(=O)[C@]2(O)[C@@]3(C)[C@@H](O)CCC(C)(C)[C@@H]3[C@H](OC(=O)COC(=O)CN)[C@H](OC(C)=O)[C@@]2(C)O1` [1 OAc NH2, 7β-acetoxy-8,13-epoxy-6β-(2-glycinyloxyacetoxy)-1α,9α-dihydroxylabd-14-en-11-one hydrochloride] had an EC50 of 0.008 µg/mL.
Still for that read-out and setting: next, `C=C[C@@]1(C)CC(=O)[C@]2(O)[C@@]3(C)[C@@H](O)CCC(C)(C)[C@@H]3[C@H](OC(=O)COC(=O)CCN(C)C)[C@H](OC(C)=O)[C@@]2(C)O1` [2 OAc N(CH3)2]: 0.058 µg/mL (≈ 0.102 µM).
Same read-out and setting: with `C=C[C@@]1(C)CC(=O)[C@]2(O)[C@@]3(C)[C@@H](O)CCC(C)(C)[C@@H]3[C@H](OC(=O)COC(=O)CCN3CCCCC3)[C@H](OC(C)=O)[C@@]2(C)O1` the figure was 0.086 µg/mL (≈ 0.142 µM).
Same read-out and setting: next, `C=C[C@@]1(C)CC(=O)[C@]2(O)[C@@]3(C)[C@@H](O)CCC(C)(C)[C@@H]3[C@H](OC(=O)COC(=O)CN(CC)CC)[C@H](OC(C)=O)[C@@]2(C)O1` [1 OAc N(C2 H5)2, 7β-Acetoxy-6β-(2-N,N-diethylaminoacetoxyacetoxy)-8,13-epoxy-1α,9α-dihydroxylabd-14-en-11-one hydrochloride sesquihydrate]: 0.03 µg/mL; `C=C[C@@]1(C)CC(=O)[C@]2(O)[C@@]3(C)[C@@H](O)CCC(C)(C)[C@@H]3[C@H](OC(=O)COC(=O)CN(C(C)C)C(C)C)[C@H](OC(C)=O)[C@@]2(C)O1` [1 OAc N[CH(CH3)2]2, 7β-Acetoxy-6β-(2-N,N-diisopropylaminoacetoxyacetoxy)-8,13-epoxy-1α,9α-dihydroxylabd-14-en-11-one hydrochloride monohydrate]: 0.14 µg/mL.
As for `C=C[C@@]1(C)CC(=O)[C@]2(O)[C@@]3(C)[C@@H](O)CCC(C)(C)[C@@H]3[C@H](OC(=O)COC(=O)CN3CCN(C)CC3)[C@H](OC(C)=O)[C@@]2(C)O1`, the EC50 is 0.006 µg/mL (≈ 0.00986 µM).
`C=C[C@@]1(C)CC(=O)[C@]2(O)[C@@]3(C)[C@@H](O)CCC(C)(C)[C@@H]3[C@H](OC(=O)COC(=O)CN3CCOCC3)[C@H](OC(C)=O)[C@@]2(C)O1` gave an EC50 of 0.072 µg/mL (≈ 0.121 µM).
Same read-out and setting: with `C=C[C@@]1(C)CC(=O)[C@]2(O)[C@@]3(C)[C@@H](O)CCC(C)(C)[C@@H]3[C@H](OC(=O)COC(=O)CN3CCCCC3)[C@H](OC(C)=O)[C@@]2(C)O1` the figure was 0.04 µg/mL (≈ 0.0674 µM).
Same read-out and setting: next, `C=C[C@@]1(C)CC(=O)[C@]2(O)[C@@]3(C)[C@@H](O)CCC(C)(C)[C@@H]3[C@H](OC(=O)COC(=O)CN)[C@H](O)[C@@]2(C)O1` [1 OH NH2, 8,13-epoxy-6β-(2-glycinyloxyacetoxy)-1α,7β, 9α-trihydroxylabd-14-en-11-one hydrochloride]: more than 10 µg/mL; `C=C[C@@]1(C)CC(=O)[C@]2(O)[C@@]3(C)[C@@H](O)CCC(C)(C)[C@@H]3[C@H](OC(=O)COC(=O)CCN)[C@H](OC(C)=O)[C@@]2(C)O1` [2 OAc NH2]: 0.02 µg/mL (≈ 0.0371 µM).

The test system of the next experiment is Blood pressure in cats. The experiment can be described thus: Test for an antihypertensive effect: blood pressure in cats. The experiment is classed as in vivo. The following applies: 0.1 mg/kg i.v., anesthetized cats, formula Ia. The protocol: Test for an antihypertensive effect
Cats of both sexes and weighing 3 to 4 kg are anesthetized with ether and maintained under chloralose anesthesia (70 mg/kg i.v.). Cannulas are placed in the femoral artery and femoral vein to record the blood pressure and to administer the medicament, respectively. The blood pressure in the femoral artery is recorded via a Statham P 23 Db pressure transducer on a Nihon-Kohden pen recorder for physiological purposes. The compound to be tested is dissolved in distilled water and administered intravenously. The fall in blood pressure and the duration of the effect lowering blood pressure are noted.
For `C=C[C@@]1(C)CC(=O)[C@]2(O)[C@@]3(C)[C@@H](O)CCC(C)(C)[C@@H]3[C@H](O)[C@H](OC(=O)COC(=O)CN3CCCCC3)[C@@]2(C)O1`, the “duration (of fall of B.P.)” value came to 40 min and the “fall of B.P.” value was 25 mm Hg.
For `C=C[C@@]1(C)CC(=O)[C@]2(O)[C@@]3(C)[C@@H](O)CCC(C)(C)[C@@H]3[C@H](O)[C@H](OC(=O)COC(=O)CN)[C@@]2(C)O1` [1 NH2, 8,13-Epoxy-7β-(2-glycinyloxyacetoxy)-1α,6β,9α-trihydroxylabd-14-en-11-one monohydrochloride] the same measures were 120 min and 20 mm Hg.
In the case of `C=C[C@@]1(C)CC(=O)[C@]2(O)[C@@]3(C)[C@@H](O)CCC(C)(C)[C@@H]3[C@H](O)[C@H](OC(=O)COC(=O)CN3CCN(C)CC3)[C@@]2(C)O1` [drawing 61], the “duration (of fall of B.P.)” value came to 40 min and the “fall of B.P.” value came out at 20 mm Hg.
Turning to `C=C[C@@]1(C)CC(=O)[C@]2(O)[C@@]3(C)[C@@H](O)CCC(C)(C)[C@@H]3[C@H](O)[C@H](OC(=O)COC(=O)CN3CCOCC3)[C@@]2(C)O1` [drawing 62], the “duration (of fall of B.P.)” value turned out to be 60 min and the “fall of B.P.” value was 30 mm Hg.
As for `C=C[C@@]1(C)CC(=O)[C@]2(O)[C@@]3(C)[C@@H](O)CCC(C)(C)[C@@H]3[C@H](O)[C@H](OC(=O)COC(=O)CN(C(C)C)C(C)C)[C@@]2(C)O1` [1 NH[CH(CH3)2]2], the “duration (of fall of B.P.)” value came out at 125 min and the “fall of B.P.” value is listed as 25 mm Hg.

Staying with this experiment, now noted: 0.3 mg/kg i.v., anesthetized cats, formula Ia.
As for `C=C[C@@]1(C)CC(=O)[C@]2(O)[C@@]3(C)[C@@H](O)CCC(C)(C)[C@@H]3[C@H](O)[C@H](OC(=O)COC(=O)CN3CCN(C(=O)OCC)CC3)[C@@]2(C)O1` [drawing 63], the “duration (of fall of B.P.)” value came to 30 min and the “fall of B.P.” value turned out to be 35 mm Hg.
For `C=C[C@@]1(C)CC(=O)[C@]2(O)[C@@]3(C)[C@@H](O)CCC(C)(C)[C@@H]3[C@H](O)[C@H](OC(=O)COC(=O)CNC(=O)OC(C)(C)C)[C@@]2(C)O1` [1 NHBoC], the “duration (of fall of B.P.)” value came to 35 min and the “fall of B.P.” value stood at 30 mm Hg.

Staying with this experiment, now noted: 1 mg/kg i.v., anesthetized cats, formula Ia.
Take `C=C[C@@]1(C)CC(=O)[C@]2(O)[C@@]3(C)[C@@H](O)CCC(C)(C)[C@@H]3[C@H](O)[C@H](OC(=O)COC(=O)CNc3cc(OC)c(OC)c(OC)c3)[C@@]2(C)O1` [drawing 64]: the “duration (of fall of B.P.)” value amounted to 60 min and the “fall of B.P.” value is 80 mm Hg.
Turning to `C=C[C@@]1(C)CC(=O)[C@]2(O)[C@@]3(C)[C@@H](O)CCC(C)(C)[C@@H]3[C@H](O)[C@H](OC(=O)COC(=O)CN3CCC(c4ccccc4)CC3)[C@@]2(C)O1` [drawing 60], the “duration (of fall of B.P.)” value turned out to be 45 min and the “fall of B.P.” value was determined as 60 mm Hg.

The record behind these values is patent US5093331A, “Labdane derivatives, a process for their preparation, and their use as medicaments” (Hoechst Aktiengesellschaft, priority 1987, dated 1992).
